Results as given in article PMC12402854 (Angewandte Chemie (International Ed. in English), 2025).

Target: T1, Xeroderma pigmentosum type B (XPB) (Homo sapiens, UniProt P19447)
T1 sequence (P19447 1-782): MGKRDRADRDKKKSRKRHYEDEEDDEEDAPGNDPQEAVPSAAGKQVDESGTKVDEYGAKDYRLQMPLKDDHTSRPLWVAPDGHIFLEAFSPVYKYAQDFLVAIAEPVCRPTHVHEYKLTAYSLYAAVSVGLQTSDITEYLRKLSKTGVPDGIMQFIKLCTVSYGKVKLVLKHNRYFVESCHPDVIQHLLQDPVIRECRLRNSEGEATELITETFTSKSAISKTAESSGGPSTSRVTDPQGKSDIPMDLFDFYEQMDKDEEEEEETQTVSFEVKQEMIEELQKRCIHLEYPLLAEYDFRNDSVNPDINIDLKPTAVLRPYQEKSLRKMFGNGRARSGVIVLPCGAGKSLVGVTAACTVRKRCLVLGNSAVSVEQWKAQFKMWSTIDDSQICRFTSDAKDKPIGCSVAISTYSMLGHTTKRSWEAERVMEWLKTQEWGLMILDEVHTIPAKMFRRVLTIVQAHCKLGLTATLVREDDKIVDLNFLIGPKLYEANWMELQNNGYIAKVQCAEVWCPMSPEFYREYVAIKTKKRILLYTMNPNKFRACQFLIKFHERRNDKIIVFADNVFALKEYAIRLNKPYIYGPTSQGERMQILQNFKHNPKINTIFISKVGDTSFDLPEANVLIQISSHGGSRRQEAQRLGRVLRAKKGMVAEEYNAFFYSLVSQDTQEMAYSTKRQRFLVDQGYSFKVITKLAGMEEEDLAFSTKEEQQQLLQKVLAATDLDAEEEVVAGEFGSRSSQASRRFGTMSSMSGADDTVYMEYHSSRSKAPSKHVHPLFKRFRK
Test: live-cell covalent labelling, click to TAMRA, in-gel fluorescence
Type: cell-based

triptolide-alkyne [TL-alk]
EC50: 0.0926 µM
